Experimental findings from patent publication US9193728B2, “Fused tetracyclic pyrido [4,3-B] indole and pyrido [3,4-B] indole derivatives and methods of use” (Medivation Technologies, Inc., priority 2010, dated 2015) are described below.

This assay addresses T1, human recombinant histamine H2 receptor (Homo sapiens, UniProt P25021).
T1 construct: expressed in transfected cells; host or cells: CHO-K1
The experiment in a line: Histamine H2 radioligand binding ([125I]Aminopotentidine). Conditions: compound at 1 μM; 0.1 nM [125I]Aminopotentidine; read-out: Histamine Binding (1 μM) H2, percentage inhibition. As for the experimental part:
To evaluate in radioligand binding assays the activity of compounds of the invention, human recombinant histamine H2 receptor expressed in Chinese hamster ovary (CHO) K1 cells (Ruat, M., Proc. Natl. Acad. Sci. USA. 87(5):1658, 1990) in a 50 mM Phosphate buffer, pH 7.4 was used. Compounds of the invention were incubated with 0.1 nM [^125I]Aminopotentidine for 120 min. at 25° C. Non-specific binding was estimated in the presence of 3 μM Tiotidine. Receptor proteins were filtered and washed, the filters were then counted to determine [^125I]Aminopotentidine specifically bound. Compounds were screened at 1 μM or lower, using 1% DMSO as vehicle. Biochemical assay results are presented as the percent inhibition of specific binding in Table 2.

Each structure is given as a SMILES string.

T1 sequence (P25021 whole entry): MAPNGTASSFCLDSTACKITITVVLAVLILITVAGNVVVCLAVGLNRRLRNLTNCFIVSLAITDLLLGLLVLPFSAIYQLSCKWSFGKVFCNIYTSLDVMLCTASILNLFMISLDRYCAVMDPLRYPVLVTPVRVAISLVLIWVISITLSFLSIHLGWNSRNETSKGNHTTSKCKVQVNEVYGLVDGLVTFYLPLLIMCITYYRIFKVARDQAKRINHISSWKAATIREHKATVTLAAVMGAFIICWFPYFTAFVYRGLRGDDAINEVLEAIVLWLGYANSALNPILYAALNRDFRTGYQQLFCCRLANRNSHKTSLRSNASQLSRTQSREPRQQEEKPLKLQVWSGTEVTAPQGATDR

As for `Cc1cc2c3c(c1)c1c(n3CC(c3ccc(F)cc3)C2)CCN(C)C1` (stereo not shown) [Compound 3], the inhibition (in general, the share of the control response that was lost under treatment) at 1 µM stood at 75%.
